Assay results: ChEMBL document CHEMBL1156188, “Synthesis and SAR of novel 4-morpholinopyrrolopyrimidine derivatives as potent phosphatidylinositol 3-kinase inhibitors” (J Med Chem, 2010)
Values after ≈ are worked out from the molar mass of the structure shown.

Experiments:
MDA-MB-361 = assay: cells; settings: Homo sapiens, MDA-MB-361, 72 h
PC-3 = assay: Cytotoxicity against human PC3 cells with PTEN mutant after 72 hrs; type: functional, cell-based; settings: PC-3, 72 h
[1] = target: Serine/threonine-protein kinase mTOR (Homo sapiens, UniProt P42345); assay: Inhibition of mTOR by DELFIA
[2] = target: Phosphatidylinositol 4,5-bisphosphate 3-kinase catalytic subunit alpha isoform (Homo sapiens, UniProt P42336)
in vitro [3] = settings: rat, liver microsomes
in vitro [4] = settings: human, liver microsomes
[5] = Solubility at pH 7.4; type: physicochemical; settings: buffer
[6] = Drug level in human MDA-MB-361 cells xenografted nude mouse at 25 mg/kg, iv after 8 hrs; type: ADME, organism-based; parameters: dose 25 mg/kg, route intravenous; settings: blood, read-out: Drug uptake
[7] = Solubility at pH 3; type: physicochemical; settings: buffer
in vitro [8] = settings: mouse, liver microsomes

Phosphatidylinositol 4,5-bisphosphate 3-kinase catalytic subunit alpha isoform, sequence (P42336 whole entry, canonical isoform): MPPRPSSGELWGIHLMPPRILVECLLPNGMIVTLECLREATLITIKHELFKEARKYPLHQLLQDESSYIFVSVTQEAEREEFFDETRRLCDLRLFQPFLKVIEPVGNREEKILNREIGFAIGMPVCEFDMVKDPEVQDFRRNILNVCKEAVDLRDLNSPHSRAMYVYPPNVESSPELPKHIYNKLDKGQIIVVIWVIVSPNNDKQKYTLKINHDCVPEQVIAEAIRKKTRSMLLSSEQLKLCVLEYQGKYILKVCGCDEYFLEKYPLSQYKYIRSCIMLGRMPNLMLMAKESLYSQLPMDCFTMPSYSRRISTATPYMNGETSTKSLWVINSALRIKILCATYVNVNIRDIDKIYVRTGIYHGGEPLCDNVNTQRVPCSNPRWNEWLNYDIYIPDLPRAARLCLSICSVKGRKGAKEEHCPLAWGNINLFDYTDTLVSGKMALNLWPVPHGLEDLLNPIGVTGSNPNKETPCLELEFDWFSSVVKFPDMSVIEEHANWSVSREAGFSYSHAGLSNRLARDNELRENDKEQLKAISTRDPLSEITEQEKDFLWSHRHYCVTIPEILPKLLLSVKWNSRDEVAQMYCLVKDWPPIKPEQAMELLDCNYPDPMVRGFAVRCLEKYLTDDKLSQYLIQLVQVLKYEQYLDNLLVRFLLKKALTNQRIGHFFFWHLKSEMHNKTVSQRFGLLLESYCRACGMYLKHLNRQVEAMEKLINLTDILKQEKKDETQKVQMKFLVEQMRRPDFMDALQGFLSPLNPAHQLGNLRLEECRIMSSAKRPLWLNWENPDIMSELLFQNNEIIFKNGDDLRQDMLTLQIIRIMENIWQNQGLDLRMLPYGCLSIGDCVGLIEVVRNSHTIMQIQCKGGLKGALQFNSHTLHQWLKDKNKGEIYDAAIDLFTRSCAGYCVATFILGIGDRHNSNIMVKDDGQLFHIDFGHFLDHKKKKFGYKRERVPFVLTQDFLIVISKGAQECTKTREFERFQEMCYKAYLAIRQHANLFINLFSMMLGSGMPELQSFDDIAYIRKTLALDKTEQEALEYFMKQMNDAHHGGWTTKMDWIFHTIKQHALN

Row | half-life (in vitro [3]) [min] | solubility [5] [µg/mL] | Compound | IC50 (PC-3) [nM] | further results
1 | > 30 | 1 (≈ 1.8 µM) | CCn1ccc2c(N3CCOCC3)nc(-c3ccc(NC(=O)Nc4ccc(C(=O)NCCN(C)C)cc4)cc3)nc21 | 26.5 | IC50 (MDA-MB-361): 5.5 nM; IC50 [1]: 0.5 nM; IC50 [2]: 1.8 nM; half-life (in vitro [4]): > 30 min
2 |  |  | Oc1cccc(-c2nc(N3CCOCC3)c3[nH]cc(C4CCN(Cc5ccc(F)cc5)CC4)c3n2)c1 | 1650 | 
3 | 29 |  | CN(C)CCN(C)C(=O)c1ccc(NC(=O)Nc2ccc(-c3nc(N4CCOCC4)c4ccn(CC(F)(F)F)c4n3)cc2)cc1 | 13 | IC50 (MDA-MB-361): < 3 nM; concentration at 8 h [6]: 1730 ng/mL; solubility [7]: > 100 µg/mL; half-life (in vitro [8]): > 30 min; IC50 [1]: 0.6 nM; half-life (in vitro [4]): > 30 min
4 |  |  | Oc1cccc(-c2nc(N3CCOCC3)c3[nH]ccc3n2)c1 | 1550 | 
5 | 5 | 21 (≈ 43.2 µM) | CN(C)CCn1ccc2c(N3CCOCC3)nc(-c3ccc(NC(=O)Nc4ccccn4)cc3)nc21 | 882 | 
6 | 27 |  | CN1CCN(C(=O)c2ccc(NC(=O)Nc3ccc(-c4nc(N5CCOCC5)c5ccn(CC(F)(F)F)c5n4)cc3)cc2)CC1 | 17 | IC50 (MDA-MB-361): 6.7 nM; concentration at 8 h [6]: 1680 ng/mL; solubility [7]: > 100 µg/mL; half-life (in vitro [8]): > 30 min; IC50 [1]: 1.7 nM; IC50 [2]: 2.4 nM; half-life (in vitro [4]): > 30 min
7 |  | > 100 | CN(C)CCn1ccc2c(N3CCOCC3)nc(-c3cccc(O)c3)nc21 | 1180 | 
8 | 4 | 47 (≈ 89.2 µM) | O=C(Nc1ccncc1)Nc1ccc(-c2nc(N3CCOCC3)c3ccn(CCN4CCCCC4)c3n2)cc1 | 634 | 
9 |  |  | CN(C)Cc1c[nH]c2c(N3CCOCC3)nc(-c3cccc(CO)c3)nc12 | > 3160 | 
10 | 4 | > 100 | CN1CCN(CCn2ccc3c(N4CCOCC4)nc(-c4ccc(NC(=O)Nc5ccncc5)cc4)nc32)CC1 | 964 | 
11 | 4 | > 100 | O=C(Nc1ccncc1)Nc1ccc(-c2nc(N3CCOCC3)c3ccn(CCN4CCNCC4)c3n2)cc1 | 2330 | 
12 |  |  | OCc1cccc(-c2nc(N3CCOCC3)c3[nH]ccc3n2)c1 | 2080 | 
13 |  | 2 (≈ 6.75 µM) | Oc1cccc(-c2nc(N3CCOCC3)c3cc[nH]c3n2)c1 | 580 | 
14 |  | 38 (≈ 122 µM) | OCc1cccc(-c2nc(N3CCOCC3)c3cc[nH]c3n2)c1 | 1210 | 
15 |  | 2 (≈ 4.37 µM) | O=CCn1ccc2c(N3CCOCC3)nc(-c3ccc(NC(=O)Nc4ccncc4)cc3)nc21 | 639 | 
16 | 4 | 28 (≈ 54.6 µM) | O=C(Nc1ccncc1)Nc1ccc(-c2nc(N3CCOCC3)c3ccn(CCN4CCCC4)c3n2)cc1 | 555 | 
17 |  |  | O=C(Nc1ccncc1)Nc1ccc(-c2nc(N3CCOCC3)c3cc[nH]c3n2)cc1 | 187 | 

Row | half-life (in vitro [3]) [min] | solubility [5] [µg/mL] | Compound | IC50 (PC-3) [nM] | further results
18 | 8 | 58 (≈ 110 µM) | CN(C)CCNCCn1ccc2c(N3CCOCC3)nc(-c3ccc(NC(=O)Nc4ccncc4)cc3)nc21 | 1150 | 
19 |  |  | CN(C)CCn1ccc2c(N3CCOCC3)nc(-c3ccc(NC(=O)Nc4ccc(F)cc4)cc3)nc21 | 189 | IC50 [1]: 8 nM
20 | 22 | 1 (≈ 2.18 µM) | O=C(Nc1ccncc1)Nc1ccc(-c2nc(N3CCOCC3)c3ccn(CCO)c3n2)cc1 | 91 | IC50 [2]: 5 nM
21 | 9 | > 100 | CNC(=O)Nc1ccc(-c2nc(N3CCOCC3)c3ccn(CCN(C)C)c3n2)cc1 | 437 | 
22 | > 30 |  | CN(C)CCNC(=O)c1ccc(NC(=O)Nc2ccc(-c3nc(N4CCOCC4)c4ccn(CC(F)(F)F)c4n3)cc2)cc1 | 23 | IC50 (MDA-MB-361): 10.3 nM; solubility [7]: 68 µg/mL (≈ 111 µM); IC50 [1]: 0.4 nM; IC50 [2]: 1.4 nM; half-life (in vitro [4]): > 30 min
23 | > 30 | 1 (≈ 1.54 µM) | CN(C)C1CCN(C(=O)c2ccc(NC(=O)Nc3ccc(-c4nc(N5CCOCC5)c5ccn(CC(F)(F)F)c5n4)cc3)cc2)CC1 | 45 | IC50 (MDA-MB-361): 11 nM
24 | 9 | 52 (≈ 107 µM) | CN(C)CCn1ccc2c(N3CCOCC3)nc(-c3ccc(NC(=O)Nc4cccnc4)cc3)nc21 | 137 | IC50 [1]: 3 nM
25 | 2 |  | OCc1cccc(-c2nc(N3CCOCC3)c3ncn(C4CCN(Cc5ccccc5)CC4)c3n2)c1 |  | 
26 |  | > 100 | CN(C)CCn1ccc2c(N3CCOCC3)nc(-c3cccc(CO)c3)nc21 | 691 | 
27 | 4 | 2 (≈ 3.97 µM) | COC(Cn1ccc2c(N3CCOCC3)nc(-c3ccc(NC(=O)Nc4ccncc4)cc3)nc21)OC | 72 | 
28 | 2 | 52 (≈ 107 µM) | CN(C)CCn1ccc2c(N3CCOCC3)nc(-c3ccc(NC(=O)Nc4ccncc4)cc3)nc21 | 100 | IC50 [2]: 8 nM
29 | > 30 | 1 (≈ 2.01 µM) | O=C(Nc1ccncc1)Nc1ccc(-c2nc(N3CCOCC3)c3ccn(CC(F)(F)F)c3n2)cc1 | 82 | IC50 (MDA-MB-361): 53 nM
30 |  |  | OCc1cccc(-c2nc(N3CCOCC3)c3[nH]cc(CN4CCCC4)c3n2)c1 | > 3160 | 
31 | 8 | > 100 | CCNC(=O)Nc1ccc(-c2nc(N3CCOCC3)c3ccn(CCN(C)C)c3n2)cc1 |  | 
32 | > 30 | 1 (≈ 1.8 µM) | CCn1ccc2c(N3CCOCC3)nc(-c3ccc(NC(=O)Nc4ccc(C(=O)N5CCNCC5)cc4)cc3)nc21 | 27 | IC50 (MDA-MB-361): 4.5 nM; IC50 [1]: 0.9 nM; IC50 [2]: 0.8 nM; half-life (in vitro [4]): > 30 min
33 | 15 |  | CCn1ccc2c(N3CCOCC3)nc(-c3ccc(NC(=O)Nc4ccc(C(=O)N5CCN(C)CC5)cc4)cc3)nc21 | 17 | IC50 (MDA-MB-361): 4.5 nM; IC50 [1]: 1.4 nM; IC50 [2]: 2.7 nM; half-life (in vitro [4]): > 30 min
